Test system: Ciliary muscle cells (rCSMCs) isolated from rat's eyes
Test: cGMP content in rat ciliary muscle cells, isolated compounds (ELISA)
Assay type: cell-based
Conditions: compounds 0.01, 0.05, 0.1, 1 μg/mL, 15 minutes
Experimental: Ciliary muscle cells ([…]) isolated from rat's eyes were dispensed into 6 wells at 5×10^5 cells/well and stabilized for one day. After stabilization, 3-isobuytyl-1-methylxanthine (1 mM) was pre-treated for 10 minutes, and then luteolin-7-O-diglucuronide and apigenin-7-O-diglucuronide compounds isolated from the Perilla frutescens (L.) Britton var. acuta (Thunb.) Kudo leaf extract were reacted for 15 minutes at concentrations of 0.01, 0.05, 0.1, and 1 μg/mL. The cGMP contents of these compounds were measured using an ELISA kit.

Compound | cGMP content
O=C(O)[C@H]1O[C@@H](O[C@H]2[C@H](Oc3cc(O)c4c(=O)cc(-c5ccc(O)cc5)oc4c3)O[C@H](C(=O)O)[C@@H](O)[C@@H]2O)[C@H](O)[C@@H](O)[C@@H]1O [apigenin-7-O-diglucuronide] | increasing the cGMP content
luteolin-7-O-diglucuronide | increasing the cGMP content
